Tested on: Stress protein genes
Experiment: DNA chip mRNA expression in yeast, stress protein genes (Table 6)
Assay type: cell-based, Saccharomyces cerevisiae S288C
Description: Yeast (Saccharomyces cerevisiae S288C (α SUC2mal mel gap2 CUP1)) were incubated at 25° C. on YPD medium (yeast extract 1%, polypepton 2%, glucose 2%). One of toxic chemical substances was added to the cells at logarithmic growth phase, and the cells were further incubated for two hours. Cells were cultured without any chemical substance in the same condition, and were used as control. Concentrations of the chemical substances were defined to inhibit the growth of the yeast but not lead to death.
After completion of the incubation, the culture was centrifuged to collect the cells. To the cells, sodium acetate buffer (50 mM sodium acetate, 10 mM EDTA, 1% SDS) was added, and the mixture was shaken at 65° C. for five minutes, followed by returning to room temperature, and obtaining the supernatant, of which the procedures were repeated two times. To the supernatant, ½ amount of a solution of phenol/chloroform was added, and the mixture was centrifuged to give a supernatant, which was added with an equal amount of chloroform, and the mixture was centrifuged to give a supernatant. To the supernatant, an equal amount of isopropanol containing 0.3 M sodium acetate was added, and the mixture was allowed to stand at room temperature for 30 minutes, after which the mixture was centrifuged to give a sediment of the whole RNAs. Seventy % ethanol was added to the sediment, and the mixture was again centrifuged to give a sediment, which was then dried and dissolved in water. mRNA was isolated from the whole RNAs as followings. In view of the fact that a poly A chain is attached to the 3′ terminus of mRNA, a polynucleotide having a poly T structure which was immobilized on the surface of latex beads was used to trap the mRNA, and then the mRNA was washed and eluted with spine column (Oligotex-dT30<Super>mRNA Purification Kit, Takara). Reverse transcription of the mRNA was conducted with a reverse transcriptase (Super Script II Reverse Transcriptase; catalogue No. 18064-014, GibcoBRL) using fluorescence-labeled nucleotides to give cDNAs that were introduced with Cy3-dUTP or Cy5-dUTP during the reverse transcription.
The labeled cDNAs were dissolved in TE buffer (10mM Tris-HCl/1 mM EDTA, pH8.0), and the solution was dropped on the DNA chip containing the whole genes of yeast (DNA Chip Research Inc. Japan) so that the cDNAs were hybridized on the DNA chip at 65° C. for over 12 hours. The fluoresces intensity of the DNA chip was read with a scanner, and the ratio relative to the fluorescence intensity resulting from the absence of chemical substance was estimated as the following, which is shown in Tables 1 to 9: […]

In the case of `[Cl][Cd][Cl]` [(2), CdCl2], the “The level of expressed mRNA in the presence of chemical substance/The level of expressed mRNA in the absence of chemical substance” value (yeast gene YAL005C) is reported as 1.6, the “The level of expressed mRNA in the presence of chemical substance/The level of expressed mRNA in the absence of chemical substance” value (yeast gene YAL015C) is reported as 1.1 and the “The level of expressed mRNA in the presence of chemical substance/The level of expressed mRNA in the absence of chemical substance” value (yeast gene YBL075C) is reported as 4.3. The “The level of expressed mRNA in the presence of chemical substance/The level of expressed mRNA in the absence of chemical substance” value (yeast gene YBL093C) was 2.0, the “The level of expressed mRNA in the presence of chemical substance/The level of expressed mRNA in the absence of chemical substance” value (yeast gene YBR044C) was 1.4 and the “The level of expressed mRNA in the presence of chemical substance/The level of expressed mRNA in the absence of chemical substance” value (yeast gene YBR054W) was 1.8. For the same molecule, the “The level of expressed mRNA in the presence of chemical substance/The level of expressed mRNA in the absence of chemical substance” value (yeast gene YBR067C) was 2.5, the “The level of expressed mRNA in the presence of chemical substance/The level of expressed mRNA in the absence of chemical substance” value (yeast gene YBR072W) was 17.4 and the “The level of expressed mRNA in the presence of chemical substance/The level of expressed mRNA in the absence of chemical substance” value (yeast gene YBR126C) was 1.9. The “The level of expressed mRNA in the presence of chemical substance/The level of expressed mRNA in the absence of chemical substance” value (yeast gene YBR169C) was 2.1, the “The level of expressed mRNA in the presence of chemical substance/The level of expressed mRNA in the absence of chemical substance” value (yeast gene YCL035C) was 2.3 and the “The level of expressed mRNA in the presence of chemical substance/The level of expressed mRNA in the absence of chemical substance” value (yeast gene YCR021C) was 1.4. For the same molecule, the “The level of expressed mRNA in the presence of chemical substance/The level of expressed mRNA in the absence of chemical substance” value (yeast gene YCR060W) was 0.7, the “The level of expressed mRNA in the presence of chemical substance/The level of expressed mRNA in the absence of chemical substance” value (yeast gene YCR083W) was 2.8 and the “The level of expressed mRNA in the presence of chemical substance/The level of expressed mRNA in the absence of chemical substance” value (yeast gene YDL022W) was 2.6. The “The level of expressed mRNA in the presence of chemical substance/The level of expressed mRNA in the absence of chemical substance” value (yeast gene YDL025C) was 5.0, the “The level of expressed mRNA in the presence of chemical substance/The level of expressed mRNA in the absence of chemical substance” value (yeast gene YDR033W) was 1.3 and the “The level of expressed mRNA in the presence of chemical substance/The level of expressed mRNA in the absence of chemical substance” value (yeast gene YDR077W) was 1.0. The “The level of expressed mRNA in the presence of chemical substance/The level of expressed mRNA in the absence of chemical substance” value (yeast gene YDR098C) was 1.4, the “The level of expressed mRNA in the presence of chemical substance/The level of expressed mRNA in the absence of chemical substance” value (yeast gene YDR155C) was 1.5 and the “The level of expressed mRNA in the presence of chemical substance/The level of expressed mRNA in the absence of chemical substance” value (yeast gene YDR258C) was 2.3. The “The level of expressed mRNA in the presence of chemical substance/The level of expressed mRNA in the absence of chemical substance” value (yeast gene YDR293C) was 0.9, the “The level of expressed mRNA in the presence of chemical substance/The level of expressed mRNA in the absence of chemical substance” value (yeast gene YDR436W) was 0.9 and the “The level of expressed mRNA in the presence of chemical substance/The level of expressed mRNA in the absence of chemical substance” value (yeast gene YDR513W) was 2.5. For the same molecule, the “The level of expressed mRNA in the presence of chemical substance/The level of expressed mRNA in the absence of chemical substance” value (yeast gene YDR519W) was 3.2, the “The level of expressed mRNA in the presence of chemical substance/The level of expressed mRNA in the absence of chemical substance” value (yeast gene YEL030W) was 0.9 and the “The level of expressed mRNA in the presence of chemical substance/The level of expressed mRNA in the absence of chemical substance” value (yeast gene YEL039C) was 0.7. For the same molecule, the “The level of expressed mRNA in the presence of chemical substance/The level of expressed mRNA in the absence of chemical substance” value (yeast gene YER042W) was 2.2, the “The level of expressed mRNA in the presence of chemical substance/The level of expressed mRNA in the absence of chemical substance” value (yeast gene YER057C) was 2.0 and the “The level of expressed mRNA in the presence of chemical substance/The level of expressed mRNA in the absence of chemical substance” value (yeast gene YER103W) was 2.1. The “The level of expressed mRNA in the presence of chemical substance/The level of expressed mRNA in the absence of chemical substance” value (yeast gene YER125W) was 1.1, the “The level of expressed mRNA in the presence of chemical substance/The level of expressed mRNA in the absence of chemical substance” value (yeast gene YFL014W) was 5.1 and the “The level of expressed mRNA in the presence of chemical substance/The level of expressed mRNA in the absence of chemical substance” value (yeast gene YFL016C) was 1.0. For the same molecule, the “The level of expressed mRNA in the presence of chemical substance/The level of expressed mRNA in the absence of chemical substance” value (yeast gene YFL020C) was 1.1, the “The level of expressed mRNA in the presence of chemical substance/The level of expressed mRNA in the absence of chemical substance” value (yeast gene YFR052W) was 1.6 and the “The level of expressed mRNA in the presence of chemical substance/The level of expressed mRNA in the absence of chemical substance” value (yeast gene YGL073W) was 2.1. For the same molecule, the “The level of expressed mRNA in the presence of chemical substance/The level of expressed mRNA in the absence of chemical substance” value (yeast gene YGL115W) was 0.6, the “The level of expressed mRNA in the presence of chemical substance/The level of expressed mRNA in the absence of chemical substance” value (yeast gene YGL181W) was 0.9 and the “The level of expressed mRNA in the presence of chemical substance/The level of expressed mRNA in the absence of chemical substance” value (yeast gene YGR088W) was 1.2. For the same molecule, the “The level of expressed mRNA in the presence of chemical substance/The level of expressed mRNA in the absence of chemical substance” value (yeast gene YHL028W) was 0.8, the “The level of expressed mRNA in the presence of chemical substance/The level of expressed mRNA in the absence of chemical substance” value (yeast gene YHL046C) was 1.7 and the “The level of expressed mRNA in the presence of chemical substance/The level of expressed mRNA in the absence of chemical substance” value (yeast gene YHR030C) was 0.8. The “The level of expressed mRNA in the presence of chemical substance/The level of expressed mRNA in the absence of chemical substance” value (yeast gene YHR057C) was 1.2, the “The level of expressed mRNA in the presence of chemical substance/The level of expressed mRNA in the absence of chemical substance” value (yeast gene YHR104W) was 4.1 and the “The level of expressed mRNA in the presence of chemical substance/The level of expressed mRNA in the absence of chemical substance” value (yeast gene YIL011W) was 0.5.
